The assay concerns the target T1, human TGR5 (Homo sapiens, UniProt Q8TDU6).
T1 construct: expressed in transfected cells; host or cells: HEK293
T1 sequence (Q8TDU6 1-330): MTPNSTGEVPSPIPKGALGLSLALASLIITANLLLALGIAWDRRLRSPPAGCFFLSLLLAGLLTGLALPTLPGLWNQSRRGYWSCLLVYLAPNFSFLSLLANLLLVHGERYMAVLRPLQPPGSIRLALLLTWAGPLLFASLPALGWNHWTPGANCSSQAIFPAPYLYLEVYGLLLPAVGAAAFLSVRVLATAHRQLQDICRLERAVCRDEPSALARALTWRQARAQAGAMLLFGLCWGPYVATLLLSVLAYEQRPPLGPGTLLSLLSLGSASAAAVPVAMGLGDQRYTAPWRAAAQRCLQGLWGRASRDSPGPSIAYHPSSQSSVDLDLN
Kind of assay: Cell-based TGR5 assay (cAMP generation, HTRF). The note with it: HEK293 cells stably transfected with human TGR5; cAMP by HTRF; 30 minutes at 37° C.; read-out: pEC50 Human TGR5 (converted). Summed up: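 First, compounds in 3-fold serial dilution were placed in HBSS with 10 mM HEPES pH 7.4 and 0.5 mM IBMX. Next, human TGR5-expressing HEK293 cells were added and incubated 30 min at 37° C. Finally, cAMP was detected by HTRF and pEC50 derived by logistic fitting.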
Regarding `CC(C)N(CCCCNC(=O)N[C@@H](CO)[C@@H](O)[C@H](O)[C@H](O)CO)S(=O)(=O)c1ccc(Cl)c(COC2(c3cnccc3-c3ccccc3OC3CC3)CCC2)c1` [Compound I-746, 4-chloro-3-((1-(4-(2-cyclopropoxyphenyl)pyridin-3-yl)cyclobutoxy)methyl)-N-isopropyl-N-(4-(3-((2S,3R,4S,5R)-1,3,4,5,6-pentahydroxyhexan-2-yl)ureido)butyl)benzenesulfonamide], the EC50 was less than 100 nM.

With `CC(C)N(CCCCNC(=O)NC[C@H](O)[C@@H](O)[C@H](O)[C@H](O)CO)S(=O)(=O)c1ccc(Cl)c(COC2(c3cnccc3-c3ccccc3OC3CC3)CCC2)c1` [Compound I-747, 4-chloro-3-((1-(4-(2-cyclopropoxyphenyl)pyridin-3-yl)cyclobutoxy)methyl)-N-isopropyl-N-(4-(3-((2S,3R,4R,5R)-2,3,4,5,6-pentahydroxyhexyl)ureido)butyl)benzenesulfonamide], the EC50 is less than 100 nM.

As for `O=C(NC[C@H](O)[C@@H](O)[C@H](O)[C@H](O)CO)c1ccc(CCc2ccc(Cl)c(COC3(c4cnccc4-c4ccccc4OC4CC4)CC3)c2)cn1` [Compound I-748, 5-(4-chloro-3-((1-(4-(2-cyclopropoxyphenyl)pyridin-3-yl)cyclopropoxy)methyl)phenethyl)-N-((2S,3R,4R,5R)-2,3,4,5,6-pentahydroxyhexyl)picolinamide], the EC50 is less than 100 nM.

Take `CC(C)N(CCCCNC(=O)N[C@@H](CO)[C@@H](O)[C@H](O)[C@H](O)CO)S(=O)(=O)c1ccc(Cl)c(COC2(c3cnccc3-c3ccccc3OC3CC3)CCOC2)c1` (stereo partly drawn) [Compound I-749, 4-chloro-3-(((3-(4-(2-cyclopropoxyphenyl)pyridin-3-yl)tetrahydrofuran-3-yl)oxy)methyl)-N-isopropyl-N-(4-(3-((2S,3R,4S,5R)-1,3,4,5,6-pentahydroxyhexan-2-yl)ureido)butyl)benzenesulfonamide]: the EC50 is less than 100 nM.

As for `CC(C)N(CCCCNC(=O)NC[C@H](O)[C@@H](O)[C@H](O)[C@H](O)CO)S(=O)(=O)c1ccc(Cl)c(COC2(c3cnccc3-c3ccccc3OC3CC3)CCOC2)c1` (stereo partly drawn) [Compound I-750, 4-chloro-3-(((3-(4-(2-cyclopropoxyphenyl)pyridin-3-yl)tetrahydrofuran-3-yl)oxy)methyl)-N-isopropyl-N-(4-(3-((2S,3R,4R,5R)-2,3,4,5,6-pentahydroxyhexyl)ureido)butyl) benzenesulfonamide], the EC50 is less than 100 nM.

For the compound `CC(C)N(CCCCNC(=O)NC[C@H](O)[C@@H](O)[C@H](O)[C@H](O)CO)S(=O)(=O)c1ccc(Cl)c(CNC2(c3cnccc3-c3ccccc3OC3CC3)CC2)c1` [Compound I-751, 4-chloro-3-(((1-(4-(2-cyclopropoxyphenyl)pyridin-3-yl)cyclopropyl)amino)methyl)-N-isopropyl-N-(4-(3-((2S,3R,4R,5R)-2,3,4,5,6-pentahydroxyhexyl)ureido)butyl) benzenesulfonamide], the EC50 was less than 100 nM.

Consider `CC(OCc1cc(S(=O)(=O)N(CCCCNC(=O)N[C@@H](CO)[C@@H](O)[C@H](O)[C@H](O)CO)C(C)C)ccc1Cl)c1cnccc1-c1ccccc1OC1CC1` (stereo partly drawn) [Compound I-752, 4-chloro-3-((1-(4-(2-cyclopropoxyphenyl)pyridin-3-yl)ethoxy)methyl)-N-isopropyl-N-(4-(3-((2S,3R,4S,5R)-1,3,4,5,6-pentahydroxyhexan-2-yl)ureido)butyl)benzenesulfonamide], for which the EC50 is less than 100 nM.

For the compound `CC(OCc1cc(S(=O)(=O)N(CCCCNC(=O)NC[C@H](O)[C@@H](O)[C@H](O)[C@H](O)CO)C(C)C)ccc1Cl)c1cnccc1-c1ccccc1OC1CC1` (stereo partly drawn) [Compound I-753, 4-chloro-3-((1-(4-(2-cyclopropoxyphenyl)pyridin-3-yl)ethoxy)methyl)-N-isopropyl-N-(4-(3-((2S,3R,4R,5R)-2,3,4,5,6-pentahydroxyhexyl)ureido)butyl)benzenesulfonamide], the EC50 was less than 100 nM.

Take `CC(C)N(CCCCNC(=O)N[C@@H](CO)[C@@H](O)[C@H](O)[C@H](O)CO)S(=O)(=O)c1ccc(Cl)c(CNC(C)(C)c2cnccc2-c2ccccc2OC2CC2)c1` [Compound I-754, 4-chloro-3-(((2-(4-(2-cyclopropoxyphenyl)pyridin-3-yl)propan-2-yl)amino)methyl)-N-isopropyl-N-(4-(3-((2S,3R,4S,5R)-1,3,4,5,6-pentahydroxyhexan-2-yl)ureido)butyl) benzenesulfonamide]: the EC50 was less than 100 nM.

For `O=C(NCCCCOc1ccc(Cl)c(COC2(c3cnccc3-c3ccccc3OC3CC3)CC2)c1)NC[C@H](O)[C@@H](O)[C@H](O)[C@H](O)CO` [Compound I-755, 1-(4-(4-chloro-3-((1-(4-(2-cyclopropoxyphenyl)pyridin-3-yl)cyclopropoxy)methyl)phenoxy)butyl)-3-((2S,3R,4R,5R)-2,3,4,5,6-pentahydroxyhexyl)urea], the EC50 is 126 to 1000 nM.

For `O=C(N[C@@H](CO)[C@@H](O)[C@H](O)[C@H](O)CO)c1cccc(OCc2ccc(Cl)c(COC3(c4cnccc4-c4ccccc4OC4CC4)CC3)c2)c1` [Compound I-756, 3-((4-chloro-3-((1-(4-(2-cyclopropoxyphenyl)pyridin-3-yl)cyclopropoxy)methyl)benzyl)oxy)-N-((2S,3R,4S,5R)-1,3,4,5,6-pentahydroxyhexan-2-yl)benzamide], the EC50 was 126 to 1000 nM.

Take `Cn1c(C(=O)NC[C@H](O)[C@@H](O)[C@H](O)[C@H](O)CO)cnc1SCc1ccc(Cl)c(COC2(c3cnccc3-c3ccccc3OC3CC3)CC2)c1` [Compound I-758, 2-((4-chloro-3-((1-(4-(2-cyclopropoxyphenyl)pyridin-3-yl)cyclopropoxy)methyl)benzyl)thio)-1-methyl-N-((2S,3R,4R,5R)-2,3,4,5,6-pentahydroxyhexyl)-1H-imidazole-5-carboxamide]: the EC50 is 126 to 1000 nM.

As to `Cn1c(C(=O)N[C@@H](CO)[C@@H](O)[C@H](O)[C@H](O)CO)cnc1SCc1ccc(Cl)c(COC2(c3cnccc3-c3ccccc3OC3CC3)CC2)c1` [Compound I-759, 2-((4-chloro-3-((1-(4-(2-cyclopropoxyphenyl)pyridin-3-yl)cyclopropoxy)methyl)benzyl)thio)-1-methyl-N-((2S,3R,4S,5R)-1,3,4,5,6-pentahydroxyhexan-2-yl)-1H-imidazole-5-carboxamide], the EC50 is 126 to 1000 nM.

Take `O=C(NCCCCCOc1ccc(Cl)c(COC2(c3cnccc3-c3ccccc3OC3CC3)CC2)c1)N[C@@H](CO)[C@@H](O)[C@H](O)[C@H](O)CO` [Compound I-760, 1-(5-(4-chloro-3-((1-(4-(2-cyclopropoxyphenyl)pyridin-3-yl)cyclopropoxy)methyl)phenoxy)pentyl)-3-((2S,3R,4S,5R)-1,3,4,5,6-pentahydroxyhexan-2-yl)urea]: the EC50 was 126 to 1000 nM.

Consider `CC(C)CN(CCCCNC(=O)N[C@@H](CO)[C@@H](O)[C@H](O)[C@H](O)CO)S(=O)(=O)c1ccc(Cl)c(COC2(c3cnccc3-c3ccccc3OC3CC3)CC2)c1` [Compound I-761, 4-chloro-3-((1-(4-(2-cyclopropoxyphenyl)pyridin-3-yl)cyclopropoxy)methyl)-N-isobutyl-N-(4-(3-((2S,3R,4S,5R)-1,3,4,5,6-pentahydroxyhexan-2-yl)ureido)butyl)benzenesulfonamide], for which the EC50 was less than 100 nM.

The values are drawn from US12084472B2 (Ardelyx, Inc., priority 2015, dated 2024).
